Measured values reported in patent US9249115B2, “N,N1 substituted piperazines having combined antiaggregant, anticoagulant and vasodilatory activity, and method for producing same” (Vertex Closed Joint Stock Company, priority 2011, dated 2016).

Key:
[1] = system: experimental photothrombosis; test: Experimental photothrombosis model, arterial blood velocity; format: in vivo, Wistar male rats
Method: The studies were done on Wistar male rats with mass of 230±30 g (laboratory animals nursery “Rappolovo”, RAMS). The animals were kept with unlimited food (standard ration for laboratory rats K-120 by <<Inform-korm>>, Russia) and water allowance. […]
Thrombosis modeling: the drugs were introduced into left femoral vein, in 50 min afterwards 1 ml of Bengal rose A photosensitizer (Acros Organics, USA) solution was introduced with dose of 17 mg/kg [Boselli 2007, Petrischev 2009]. Then the incision of internal surface of animal right thigh about 2 cm in length was made. The section of the femoral vein about 5 mm in length was released from surrounding tissues and separated from neurovascular bundle. Beneath this section of the vein the black non-transparent plastic strip 3 mm in width was laid to screen off the vein and surrounding tissues from radiation. The irradiation was done using diode laser <<DPSS-laser>> (Diode Pumped Solid State Laser, South Korea) with 532 nm wavelength and 60 mW power. The area of irradiation was 1 mm^2, exposing time was 40 min. The blood flow in femoral artery was measured by high frequency Doppler ultrasonography method (<<Minimax-Doppler-K>> apparatus, frequency of sensor was 20 MHz). The blood velocity alteration due to irradiation was measured (Table 9).

[2] = system: Ristocetin-induced thrombocyte aggregation; test: Ristocetin-induced thrombocyte aggregation, donor human thrombocyte enriched plasm; format: cell-based; details: ristocetin inductor; for MA (60 c), %: amplitude at 60 s
Method: (§1) The study of antiaggregant and anticoagulant properties of N,N′-substituted piperazines on the sample of donor human blood. The blood was collected by donor ulnar vein punction with dry sharp needle without syringe. The administration of drugs that influence on thrombocyte function was cancelled in 7÷10 days before the experiment.
(§2) In graduated plastic centrifuge tube 1 ml of 3.8% basic trisodium citrate solution with pH=7.4 was placed. The ulnar vein was punctuated, the freely effluent blood was collected up to 10 ml mark, the mixture was instantly stirred to prevent air bubbles appearance. The collected and stabilized blood was split in two 5 ml portions in two tubes.
(§3) To obtain thrombocyte enriched plasm the stabilized blood was spinned at 1000 rpm (150 g) for 8 min at room temperature. The repeated spinning of the blood at 3200 rpm (2300 g) for 20 min at 22° C. yielded thrombocyte depleted plasm.
(§4) The study of anticoagulant activity was done within 2 h after thrombocyte enriched plasm obtaining. The plasm was normalized to achieve thrombocyte concentration of 200-250×10^9/L by addition of thrombocyte-free plasm. The concentration of thrombocytes was measured on SOLAR AR 2110 analyzer.
(§5) Antiaggregant properties of N,N′-substituted piperazines were evaluated by their influence on thrombocyte aggregation in tests with ADP-, collagen- and ristocetin-induced aggregation. To dissolve N,N′-substituted piperazines and to dilute reagents Tris-HCl-buffer with pH=7.4 was used.
(§6) As the general characteristic of thrombocyte aggregation activity the maximum amplitude (MA) of aggregation was taken on. That is the peak value of transmittance coefficient of the sample after aggregation agent introduction expressed in % relative to the transmittance of thrombocyte-free plasm. The response was registered on ascending linear segment of aggregation curve for 16 s.
(§7) The measurements were done using 4-channel CHRONO-LOG 490-4D analyzer (CHRONO-LOG, USA). The temperature in the cell was 37° C., the spinning speed of magnetic stirrer was 1200 rpm.
(§8) In a cuvette 0.5 ml of N,N′-substituted piperazine solution was placed, then 0.4 ml of normalized thrombocyte plasm was added. The mixture was stirred and incubated at 37° C. for 5 min. The cuvette was placed in aggregometer, then 0.05 ml of aggregation inductor solution was added (ADP or collagen or ristocetin). Thrombocyte aggregation was measured for 3 min.
To study ristocetin-induced thrombocyte aggregation CHRONO-PAR RISTOCETIN reagent (CHRONO-LOG, USA) was diluted with buffer solution until ristocetin concentration reached 12 mg/ml. Thrombocyte aggregation amplitude was measured in 60 s after the beginning of the reaction.

[3] = system: Collagen-induced thrombocyte aggregation; test: Collagen-induced thrombocyte aggregation, donor human thrombocyte enriched plasm; format: cell-based; details: collagen inductor; for MA, %: human thrombocyte plasm
Method: as §1, §2, §3, §4, §5, §6, §7, §8
In collagen-induced thrombocyte aggregation test CHRONO-PAR COLLAGEN reagent (CHRONO-LOG, USA) was diluted with buffer solution until collagen concentration reached 10 µg/ml.

[4] = system: Thrombocyte aggregation induced by arachidonic acid; test: Thrombocyte aggregation induced by arachidonic acid; format: cell-based, human; details: arachidonic acid 0.2 mmol
Method: as §1, §2, §3
The study of antiaggregant properties of N,N′-substituted piperazines with arachidonic acid (CHRONO-LOG, USA) as an inductor: to 450 l of thrombocyte plasm 50 l of N,N′-substituted piperazine solution was added, the mixture was incubated in the cuvette of CHRONO-LOG aggregometer for 15 min at 36° C. The concentration of arachidonic acid in the sample was 0.2 mmol, the concentrations of N,N′-substituted piperazines and comparison substance (aspirin) were 4÷5 mmol/L.
It was shown that N,N′-substituted piperazines have pronounced aspirin-like activity by inhibiting thrombocyte aggregation induced by arachidonic acid (table 5).

[5] = system: ADP-induced thrombocyte aggregation; test: ADP-induced thrombocyte aggregation, donor human thrombocyte enriched plasm; format: cell-based; details: ADP inductor; for MA, %: human thrombocyte plasm
Method: as §1, §2, §3, §4, §5, §6, §7, §8
ADP-induced reversible thrombocyte aggregation test utilized CHRONO-PAR ADP reagent (CHRONO-LOG, USA) with 10 mol concentration. Primary (reversible) thrombocyte aggregation was evaluated by the response on addition of ADP threshold dose (ADP concentration is 1 mol) to plasm.

[6] = Homo sapiens, 0.5 mmol/L, read-out: (MA0-MAx): MA0 * 100%
[7] = Homo sapiens, 1.25 mmol/L, read-out: (MA0-MAx): MA0 * 100%

COc1ccc(CN2CCN(CC(O)CS(=O)(=O)[O-])CC2)c(OC)c1OC.[Na+] (centres unmarked) [Example 3, 3-(1-(2,3,4-trimethoxybenzyl)piperazine-4-yl)-2-hydroxy-1-propanesulfonic acid sodium salt]
V, cm/s (arterial blood velocity) ([1]; 0.01 mmol/kg, 0 min of irradiation): 7.1 ± 3.2 cm/s | V, cm/s (arterial blood velocity) ([1]; 0.01 mmol/kg, 10 min of irradiation): 7.00 ± 2.4 cm/s | V, cm/s (arterial blood velocity) ([1]; 0.01 mmol/kg, 20 min of irradiation): 7.5 ± 2.2 cm/s | V, cm/s (arterial blood velocity) ([1]; 0.01 mmol/kg, 30 min of irradiation): 6.4 ± 1.9 cm/s | V, cm/s (arterial blood velocity) ([1]; 0.01 mmol/kg, 40 min of irradiation): 6.6 ± 1.5 cm/s | V, cm/s (arterial blood velocity) ([1]; 0.025 mmol/kg, 0 min of irradiation): 8.5 ± 1.7 cm/s | V, cm/s (arterial blood velocity) ([1]; 0.025 mmol/kg, 10 min of irradiation): 8.4 ± 1.2 cm/s | V, cm/s (arterial blood velocity) ([1]; 0.025 mmol/kg, 20 min of irradiation): 8.4 ± 3.0 cm/s | V, cm/s (arterial blood velocity) ([1]; 0.025 mmol/kg, 30 min of irradiation): 8.9 ± 1.6 cm/s | V, cm/s (arterial blood velocity) ([1]; 0.025 mmol/kg, 40 min of irradiation): 8.5 ± 1.2 cm/s | (MAx-MA0): MA0 * 100% ([2]; 0.5 mmol/L): 6.1% | MA (60 c), % ([2]; 0.5 mmol/L): 63.0 ± 6.1% | (MAx-MA0): MA0 * 100% (Ozagrel: (MA0-MAx): MA0 * 100%) ([2]; 1.25 mmol/L): 7.5% | MA (60 c), % ([2]; 1.25 mmol/L): 62.1 ± 8.9% | (MAx-MA0): MA0 * 100% (Ozagrel: (MA0-MAx): MA0 * 100%) ([2]; 2.5 mmol/L): 24.0% | MA (60 c), % ([2]; 2.5 mmol/L): 51.0 ± 7.2% | (MAx-MA0): MA0 * 100% (Ozagrel: (MA0-MAx): MA0 * 100%) ([2]; 5.0 mmol/L): 77.5% | MA (60 c), % ([2]; 5.0 mmol/L): 25.1 ± 3.2%

Cl.N=C(N)N1CCN(S(=O)(=O)c2cc(Cl)c(Cl)cc2Cl)CC1 [Example 13, 4-(2,4,5-trichlorophenylsulfonyl)piperazine-1-carboximidamide hydrochloride]
MA, % ([3]; 0.5 mmol/L): 72.1 ± 6.3% | MA, % ([3]; 1.25 mmol/L): 62.0 ± 9.8% | MA, % ([3]; 2.5 mmol/L): 55.0 ± 9.2% | MA, % ([3]; 5.0 mmol/L): 48.7 ± 7.1% | inhibition at 500 µM [3, 6]: 7.2% | inhibition at 1250 µM [3, 7]: 20.2% | inhibition at 2500 µM ([3]; Homo sapiens, 2.5 mmol/L, read-out: (MA0-MAx): MA0 * 100%): 29.2% | inhibition at 5000 µM ([3]; Homo sapiens, 5.0 mmol/L, read-out: (MA0-MAx): MA0 * 100%): 37.3% | MA ([4]; 4.0 mmol/L): 2 | Max. rate for 16 sec ([4]; 4.0 mmol/L): 1 | inhibition at 4000 µM ([4]; Homo sapiens, 4.0 mmol/L): 100% | MA, % ([5]; 0.2 mmol/L): 14.0 ± 3.9% | MA, % ([5]; 0.5 mmol/L): 10.3 ± 1.3% | MA, % ([5]; 1.25 mmol/L): 4.7 ± 2.1% | MA, % ([5]; 2.50 mmol/L): 1.4 ± 0.2% | inhibition at 200 µM ([5]; Homo sapiens, 0.2 mmol/L, read-out: (MA0-MAx): MA0 * 100%): 10.8% | inhibition at 500 µM [5, 6]: 34.4% | inhibition at 1250 µM [5, 7]: 70.1% | inhibition at 2500 µM ([5]; Homo sapiens, 2.50 mmol/L, read-out: (MA0-MAx): MA0 * 100%): 91.1% | (MAx-MA0): MA0 * 100% ([2]; 0.2 mmol/L): 1.8% | MA (60 c), % ([2]; 0.2 mmol/L): 60.1 ± 8.1% | (MAx-MA0): MA0 * 100% ([2]; 0.5 mmol/L): 22.5% | MA (60 c), % ([2]; 0.5 mmol/L): 48.2 ± 7.5% | (MAx-MA0): MA0 * 100% (Ozagrel: (MA0-MAx): MA0 * 100%) ([2]; 1.25 mmol/L): 30.9% | MA (60 c), % ([2]; 1.25 mmol/L): 43.0 ± 4.8% | (MAx-MA0): MA0 * 100% (Ozagrel: (MA0-MAx): MA0 * 100%) ([2]; 2.5 mmol/L): 43.4% | MA (60 c), % ([2]; 2.5 mmol/L): 35.2 ± 7.6% | (MAx-MA0): MA0 * 100% (Ozagrel: (MA0-MAx): MA0 * 100%) ([2]; 5.0 mmol/L): 48.4% | MA (60 c), % ([2]; 5.0 mmol/L): 32.1 ± 5.5%

CC(=O)Oc1ccccc1C(=O)O [Acetylsalicylic acid, reference compound]
MA ([4]; 5 mmol/L): 3 | Max. rate for 16 sec ([4]; 5 mmol/L): 5 | inhibition at 5000 µM ([4]; Homo sapiens, 5 mmol/L): 100%
